PubChem BioAssay AID192 (DTP/NCI, 2004)
“And” between values parts separate entries of the source, which are not always exact repeats. Equal entries are not always repeated. Toxic doses and inconclusive results are not listed. Rule for the calls: active = survival T/C of 150% or more; inactive = T/C below 125% in these data.

Tested on: BDF1 mice, B16 melanoma ip, median survival T/C
Experiment: NCI In Vivo Anticancer Drug Screen. Data for tumor model B16 Melanoma (intraperitoneal) in B6D2F1 (BDF1) mice
Details: endpoint: median survival time, higher = longer survival
How it was run: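 Each result divides a survival or tumor-size measurement in the compound-treated group by the same measurement in the vehicle group.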

[1] = dose: 50.0 mg/kg/injection, schedule: Q01DX009 (ip), vehicle: Klucel (hydroxypropylcellulose) (HPC)
[2] = dose: 100.0 mg/kg/injection, schedule: Q01DX009 (ip), vehicle: Klucel (hydroxypropylcellulose) (HPC)
[3] = dose: 200.0 mg/kg/injection, schedule: Q01DX009 (ip), vehicle: Klucel (hydroxypropylcellulose) (HPC)
[4] = dose: 25.0 mg/kg/injection, schedule: Q01DX009 (ip), vehicle: saline with Tween-80
[5] = dose: 400.0 mg/kg/injection, schedule: Q01DX009 (ip), vehicle: Klucel (hydroxypropylcellulose) (HPC)

Measured: T/C

O=C(CCCN1CC=C(n2c(=O)[nH]c3ccccc32)CC1)c1ccc(F)cc1
inactive: dose: 3.12 mg/kg/injection, schedule: Q01DX009 (ip), vehicle: Klucel (hydroxypropylcellulose) (HPC) 92 % of control | dose: 6.25 mg/kg/injection, schedule: Q01DX009 (ip), vehicle: Klucel (hydroxypropylcellulose) (HPC) 92 % of control and 95 % of control | dose: 12.5 mg/kg/injection, schedule: Q01DX009 (ip), vehicle: Klucel (hydroxypropylcellulose) (HPC) 98 % of control | dose: 25.0 mg/kg/injection, schedule: Q01DX009 (ip), vehicle: Klucel (hydroxypropylcellulose) (HPC) 90 % of control and 95 % of control | [1] 97 % of control | [2] 93 % of control | [3] 95 % of control

CN1CCN(CCCN2c3ccccc3Sc3ccc(Cl)cc32)CC1
inactive: dose: 0.19 mg/kg/injection, schedule: Q01DX009 (ip), vehicle: saline 111 % of control | dose: 0.39 mg/kg/injection, schedule: Q01DX009 (ip), vehicle: saline 97 % of control | dose: 0.78 mg/kg/injection, schedule: Q01DX009 (ip), vehicle: saline 100 % of control

C/C(Cc1ccccc1)=N\[N+](C)(C)C
inactive: dose: 75.0 mg/kg/injection, schedule: Q04DX003 (ip), vehicle: saline 109 % of control | dose: 150.0 mg/kg/injection, schedule: Q04DX003 (ip), vehicle: saline 104 % of control

Cc1c(Cl)cccc1N=Cc1ccccc1O
inactive: [1] 106 % of control | [2] 108 % of control | [3] 97 % of control

CC(C)=Cc1ccccc1
inactive: dose: 100.0 mg/kg/injection, schedule: Q01DX009 (ip), vehicle: saline with Tween-80 95 % of control | dose: 100.0 mg/kg/injection, schedule: Q04DX003 (ip), vehicle: saline with Tween-80 95 % of control | dose: 200.0 mg/kg/injection, schedule: Q01DX009 (ip), vehicle: saline with Tween-80 86 % of control | dose: 200.0 mg/kg/injection, schedule: Q04DX003 (ip), vehicle: saline with Tween-80 93 % of control

CC(C)=CCC/C(C)=C\CCl
inactive: [4] 105 % of control | dose: 50.0 mg/kg/injection, schedule: Q01DX009 (ip), vehicle: saline with Tween-80 101 % of control

CC(CC1c2ccccc2CCc2ccccc21)CN(C)C (stereo not drawn)
inactive: dose: 1.25 mg/kg/injection, schedule: Q01DX009 (ip), vehicle: saline 98 % of control | dose: 2.5 mg/kg/injection, schedule: Q01DX009 (ip), vehicle: saline 106 % of control | dose: 5.0 mg/kg/injection, schedule: Q01DX009 (ip), vehicle: saline 94 % of control | dose: 6.25 mg/kg/injection, schedule: Q01DX009 (ip), vehicle: saline 113 % of control | dose: 10.0 mg/kg/injection, schedule: Q01DX009 (ip), vehicle: saline 106 % of control | dose: 12.5 mg/kg/injection, schedule: Q01DX009 (ip), vehicle: saline 119 % of control | dose: 20.0 mg/kg/injection, schedule: Q01DX009 (ip), vehicle: saline 106 % of control | dose: 40.0 mg/kg/injection, schedule: Q01DX009 (ip), vehicle: saline 101 % of control | dose: 80.0 mg/kg/injection, schedule: Q01DX009 (ip), vehicle: saline 92 % of control

CN(C)N=Nc1ccc(S(=O)(=O)Nc2ncccn2)cc1
inactive: dose: 12.5 mg/kg/injection, schedule: Q01DX009 (ip), vehicle: saline with Tween-80 108 % of control | dose: 14.7 mg/kg/injection, schedule: Q01DX009 (ip), vehicle: saline with Tween-80 110 % of control | dose: 22.0 mg/kg/injection, schedule: Q01DX009 (ip), vehicle: saline with Tween-80 116 % of control | [4] 123 % of control | dose: 33.0 mg/kg/injection, schedule: Q01DX009 (ip), vehicle: saline with Tween-80 106 % of control and 123 % of control | dose: 75.0 mg/kg/injection, schedule: Q01DX009 (ip), vehicle: saline with Tween-80 115 % of control

CC(Cl)CN(CC(C)Cl)C(=O)OCC(NC(=O)OCc1ccccc1)C(=O)OCc1ccccc1 (stereo not drawn)
inactive: dose: 12.5 mg/kg/injection, schedule: Q04DX003 (ip), vehicle: Klucel (hydroxypropylcellulose) (HPC) 86 % of control | dose: 25.0 mg/kg/injection, schedule: Q04DX003 (ip), vehicle: Klucel (hydroxypropylcellulose) (HPC) 86 % of control | dose: 50.0 mg/kg/injection, schedule: Q04DX003 (ip), vehicle: Klucel (hydroxypropylcellulose) (HPC) 86 % of control | [2] 97 % of control | [3] 97 % of control | dose: 200.0 mg/kg/injection, schedule: Q04DX003 (ip), vehicle: Klucel (hydroxypropylcellulose) (HPC) 93 % of control | [5] 88 % of control

CCc1ccc(NC(=O)Nc2cccc(Cl)c2)cc1
inactive: [2] 91 % of control | [3] 102 % of control | [5] 88 % of control

Cc1cccc(C2=NCCN2)c1C
inactive: dose: 5.0 mg/kg/injection, schedule: Q04DX003 (ip), vehicle: saline with Tween-80 116 % of control | dose: 20.0 mg/kg/injection, schedule: Q04DX003 (ip), vehicle: saline with Tween-80 116 % of control
